Measured values taken from EP4610269A1, “UROKINASE PLASMINOGEN ACTIVATOR SURFACE RECEPTOR (UPAR) LIGANDS FOR DIAGNOSTIC OR THERAPEUTIC USE” (3B Pharmaceuticals GmbH, priority 2024, dated 2025).
Like-named read-outs stand apart in the source and are kept apart here. Each block holds one compound with its values, some of them ahead of it. Where a SMILES comes first, the peptide text is derived from it. Bridges are numbered along the chain shown (N, C = ends). [ ]: non-standard residue; d: D form. The star is where a group is joined. DOTA(In) = O=C1CN2CCN3CCN(CC(=O)*)CCN(CC2)CC(=O)[O][In]([O]1)[O]C(=O)C3; CH3O(CH2CH2O)11CH2CH2CO = COCCOCCOCCOCCOCCOCCOCCOCCOCCOCCOCCOCCC(=O)*; DOTA = O=C(O)CN1CCN(CC(=O)O)CCN(CC(=O)*)CCN(CC(=O)O)CC1; Phe(4-guanidino) = N=C(N)Nc1ccc(C[C@H](N)C(=O)O)cc1; NOTA = O=C(O)CN1CCN(CC(=O)O)CCN(CC(=O)*)CC1; Pro(trans-4-F) = O=C(O)[C@@H]1C[C@@H](F)CN1; Pro(cis-4-F) = O=C(O)[C@@H]1C[C@H](F)CN1; Dopa = N[C@@H](Cc1ccc(O)c(O)c1)C(=O)O; Bta = N[C@@H](Cc1csc2ccccc12)C(=O)O; Hyp = O=C(O)[C@@H]1C[C@@H](O)CN1; Pentanoyl(4-Me) = CC(C)CCC(=O)*; Cit = NC(=O)NCCC[C@H](N)C(=O)O; Propanoyl(3-OEt) = CCOCCC(=O)*; NMeL = CN[C@@H](CC(C)C)C(=O)O; Butoxycarbonyl = CCCCOC(=O)*; dNle = CCCC[C@@H](N)C(=O)O; Nle = CCCC[C@H](N)C(=O)O; Orn = NCCC[C@H](N)C(=O)O; Dab = NCC[C@H](N)C(=O)O; Nva = CCC[C@H](N)C(=O)O; Pentanoyl = CCCCC(=O)*; Butyryl = CCCC(=O)*

Assays:
[1] = target: T1, uPAR-expressing HEC-265 human endometrial adenocarcinoma cells (Homo sapiens, UniProt Q03405); assay: Competitive FACS binding assay; settings: pIC50 category of FACS binding
T1 construct: Cell surface uPAR-expressing HEC-265 human endometrial adenocarcinoma cells; host or cells: HEC-265
T1 sequence (Q03405 23-335): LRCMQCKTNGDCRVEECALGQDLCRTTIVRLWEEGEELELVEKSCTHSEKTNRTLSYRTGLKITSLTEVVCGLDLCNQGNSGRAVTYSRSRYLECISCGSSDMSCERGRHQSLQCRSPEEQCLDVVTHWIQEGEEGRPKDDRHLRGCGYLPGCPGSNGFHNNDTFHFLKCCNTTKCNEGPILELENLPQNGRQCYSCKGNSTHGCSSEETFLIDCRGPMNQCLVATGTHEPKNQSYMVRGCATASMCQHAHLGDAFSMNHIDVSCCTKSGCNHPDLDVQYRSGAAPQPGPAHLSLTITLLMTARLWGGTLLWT
In short: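 Competitive displacement of a 10 nM biotinylated peptide from HEC-265 cells (1 h, 4 °C, PBS/1% BSA), detected via APC-streptavidin by flow cytometry. pIC50 from four-parameter logistic fit of median fluorescence versus concentration.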

[2] = target: T2, human uPAR (uPAR-Fc) (Homo sapiens, UniProt Q03405); assay: Surface plasmon resonance (SPR) assay, single cycle kinetics; format: binding; settings: pKD category for uPAR SPR activity assay, uPAR-Fc on Protein A-Chip, 25°C; for Kd: read-out: pKD CAT (converted)
T2 construct: comprising amino acids Leu23-Arg303 according to UniProt entry Q03405.1; purchased R&D Systems 10378-UK-100
T2 sequence (Q03405 23-303): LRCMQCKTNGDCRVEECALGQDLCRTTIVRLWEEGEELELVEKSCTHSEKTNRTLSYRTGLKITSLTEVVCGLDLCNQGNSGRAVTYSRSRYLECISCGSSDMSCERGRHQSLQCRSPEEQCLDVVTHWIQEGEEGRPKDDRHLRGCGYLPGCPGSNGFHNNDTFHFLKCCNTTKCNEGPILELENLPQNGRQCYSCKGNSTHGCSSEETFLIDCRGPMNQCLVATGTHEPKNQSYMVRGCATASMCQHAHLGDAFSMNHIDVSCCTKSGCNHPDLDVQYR
In short: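 uPAR-Fc (Leu23-Arg303 extracellular domains, human IgG1 Fc) captured on Protein A chip to ~2000 RU; single-cycle kinetics at 25°C in HEPES running buffer pH 7.4 with 0.1% DMSO. KD from double-referenced sensorgrams fitted to 1:1 Langmuir model, reported as pKD.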

Compound: Pent-[Cys-Orn(mPEG12)-Lys(InDOTA)-Tyr-Phe-Pro-Hyp-Ile-Nva-Cys]-NH2 (Pentanoyl-C[Orn](CH3O(CH2CH2O)11CH2CH2CO)K(DOTA(In))YFP[Hyp]I[Nva]C-NH2; disulfide 1-10; not fully specified; also: In(III) complexed by DOTA) [UPAR-311]
pIC50 CAT [1]: A (pIC50 values ≥8.0) | pKD CAT [2]: A (pKD values ≥ 8.8)

Compound: CCCC[C@H]1NC(=O)[C@H](CCCNC(=N)N)NC(=O)[C@@H](NC(=O)[C@H](CC(C)C)NC(=O)[C@H](CC(=O)O)NC(C)=O)CSSC[C@@H](C(N)=O)NC(=O)[C@H](CC(C)C)NC(=O)[C@H]([C@@H](C)CC)NC(=O)[C@H](C)NC(=O)[C@@H]2CCCN2C(=O)[C@H](Cc2ccccc2)NC(=O)[C@H](Cc2ccc(O)cc2)NC1=O [UPAR-274, Ac-Asp-Leu-[Cys-Arg-nle-Tyr-Phe-Pro-Ala-Ile-Leu-Cys]-NH2] (Ac-DLCR[dNle]YFPAILC-NH2; disulfide 3-12)
IC50 [1]: 12.6 to 31.6 nM | Kd [2]: 1.58 to 10 nM

Compound: CCCC(=O)N[C@H]1CSSC[C@@H](C(N)=O)NC(=O)[C@H](CC(C)C)NC(=O)[C@H]([C@@H](C)CC)NC(=O)[C@@H](C)NC(=O)[C@@H]2CCCN2C(=O)[C@H](Cc2ccccc2)NC(=O)[C@H](Cc2ccc(O)cc2)NC(=O)[C@H](CCC(N)=O)NC(=O)[C@H](CCCNC(N)=O)NC1=O [UPAR-139, But-[Cys-Cit-Gln-Tyr-Phe-Pro-ala-Ile-Leu-Cys]-NH2] (Butyryl-C[Cit]QYFP[dA]ILC-NH2; disulfide 1-10)
IC50 [1]: 12.6 to 31.6 nM | Kd [2]: 1.58 to 10 nM

Compound: CCCCOC(=O)N[C@H]1CSSC[C@@H](C(N)=O)NC(=O)[C@H](CC(C)C)NC(=O)[C@H]([C@@H](C)CC)NC(=O)[C@@H](C)NC(=O)[C@@H]2CCCN2C(=O)[C@H](Cc2ccccc2)NC(=O)[C@H](Cc2ccc(O)cc2)NC(=O)[C@H](CCC(N)=O)NC(=O)[C@H](CCCNC(N)=O)NC1=O [UPAR-155, Butoc-[Cys-Cit-Gln-Tyr-Phe-Pro-ala-Ile-Leu-Cys]-NH2] (Butoxycarbonyl-C[Cit]QYFP[dA]ILC-NH2; disulfide 1-10)
IC50 [1]: ≤ 10 nM | Kd [2]: < 1.58 nM

Compound: CCCCC(=O)N[C@H]1CSSC[C@@H](C(N)=O)NC(=O)[C@H](CCC)NC(=O)[C@H]([C@@H](C)CC)NC(=O)[C@@H]2C[C@@H](O)CN2C(=O)[C@@H]2CCCN2C(=O)[C@H](Cc2ccccc2)NC(=O)[C@H](Cc2ccc(NC(=N)N)cc2)NC(=O)[C@H](CCCCNC(=O)CN2CCN(CC(=O)O)CCN(CC(=O)O)CCN(CC(=O)O)CC2)NC(=O)[C@H](CCCNC(N)=O)NC1=O [UPAR-149, Pent-[Cys-Cit-Lys(DOTA)-Guf-Phe-Pro-Hyp-Ile-Nva-Cys]-NH2] (Pentanoyl-C[Cit]K(DOTA)[Phe(4-guanidino)]FP[Hyp]I[Nva]C-NH2; disulfide 1-10)
IC50 [1]: ≤ 10 nM | Kd [2]: < 1.58 nM

Compound: CCCCC(=O)N[C@H]1CSSC[C@@H](C(N)=O)NC(=O)[C@H](CCC)NC(=O)[C@H]([C@@H](C)CC)NC(=O)[C@@H]2C[C@@H](O)CN2C(=O)[C@@H]2CCCN2C(=O)[C@H](Cc2c[nH]c3ccccc23)NC(=O)[C@H](Cc2ccc(O)cc2)NC(=O)[C@H](CCC(N)=O)NC(=O)[C@H](CCCNC(=N)N)NC1=O [UPAR-308, Pent-[Cys-Arg-Gln-Tyr-Trp-Pro-Hyp-Ile-Nva-Cys]-NH2] (Pentanoyl-CRQYWP[Hyp]I[Nva]C-NH2; disulfide 1-10)
IC50 [1]: ≤ 10 nM | Kd [2]: 1.58 to 10 nM

Compound: CCCCOC(=O)N[C@H]1CSSC[C@@H](C(N)=O)NC(=O)[C@H](CCC)NC(=O)[C@H]([C@@H](C)CC)NC(=O)[C@@H]2C[C@@H](F)CN2C(=O)[C@@H]2CCCN2C(=O)[C@H](Cc2ccccc2)NC(=O)[C@H](Cc2ccc(O)cc2)NC(=O)[C@H](CCCCNC(=O)CN2CCN(CC(=O)O)CCN(CC(=O)O)CCN(CC(=O)O)CC2)NC(=O)[C@H]([C@@H](C)O)NC1=O [UPAR-289, Butoc-[Cys-Thr-Lys(DOTA)-Tyr-Phe-Pro-4Tfp-Ile-Nva-Cys]-NH2] (Butoxycarbonyl-CTK(DOTA)YFP[Pro(trans-4-F)]I[Nva]C-NH2; disulfide 1-10)
IC50 [1]: ≤ 10 nM | Kd [2]: < 1.58 nM

Compound: CCCCOC(=O)N[C@H]1CSSC[C@@H](C(N)=O)NC(=O)[C@H](CCC)NC(=O)[C@H]([C@@H](C)CC)NC(=O)[C@@H]2C[C@@H](O)CN2C(=O)[C@@H]2C[C@H](F)CN2C(=O)[C@H](Cc2ccccc2)NC(=O)[C@H](Cc2ccc(O)c(O)c2)NC(=O)[C@H](CCCCNC(=O)CN2CCN(CC(=O)O)CCN(CC(=O)O)CC2)NC(=O)[C@H]([C@@H](C)O)NC1=O [UPAR-250, Butoc-[Cys-Thr-Lys(NOTA)-Dopa-Phe-4Cfp-Hyp-Ile-Nva-Cys]-NH2] (Butoxycarbonyl-CTK(NOTA)[Dopa]F[Pro(cis-4-F)][Hyp]I[Nva]C-NH2; disulfide 1-10)
IC50 [1]: ≤ 10 nM | Kd [2]: < 1.58 nM

Compound: CC[C@H](C)[C@@H]1NC(=O)[C@@H]2C[C@H](F)CN2C(=O)[C@@H]2CCCN2C(=O)[C@H](Cc2ccccc2)NC(=O)[C@H](Cc2ccc(O)cc2)NC(=O)[C@H](CCC(N)=O)NC(=O)[C@H](CCCNC(N)=O)NC(=O)[C@@H](NC(=O)CCC(C)C)CSSC[C@@H](C(N)=O)NC(=O)[C@H](CC(C)C)NC1=O [UPAR-307, iHex-[Cys-Cit-Gln-Tyr-Phe-Pro-4Cfp-Ile-Leu-Cys]-NH2] ({Pentanoyl(4-Me)}-C[Cit]QYFP[Pro(cis-4-F)]ILC-NH2; disulfide 1-10)
IC50 [1]: ≤ 10 nM | Kd [2]: < 1.58 nM

Further lines, results first:

IC50 [1]: 12.6 to 31.6 nM | Kd [2]: 1.58 to 10 nM
Compound: CCCCC(=O)N[C@H]1CSSC[C@@H](C(N)=O)NC(=O)[C@H](CCC)NC(=O)[C@H]([C@@H](C)CC)NC(=O)[C@@H]2C[C@@H](O)CN2C(=O)[C@H](CC(C)C)N(C)C(=O)[C@H](Cc2ccccc2)NC(=O)[C@H](Cc2ccc(O)cc2)NC(=O)[C@H](CCC(N)=O)NC(=O)[C@H](CCCNC(=N)N)NC1=O [UPAR-302, Pent-[Cys-Arg-Gln-Tyr-Phe-Nml-Hyp-Ile-Nva-Cys]-NH2] (Pentanoyl-CRQYF[NMeL][Hyp]I[Nva]C-NH2; disulfide 1-10)

IC50 [1]: ≤ 10 nM | Kd [2]: 1.58 to 10 nM
Compound: CCOCCC(=O)N[C@H]1CSSC[C@@H](C(N)=O)NC(=O)[C@H](CC(C)C)NC(=O)[C@H]([C@@H](C)CC)NC(=O)[C@@H](C)NC(=O)[C@@H]2CCCN2C(=O)[C@H](Cc2ccccc2)NC(=O)[C@H](Cc2ccc(O)cc2)NC(=O)[C@H](CCC(N)=O)NC(=O)[C@H](CCCNC(N)=O)NC1=O [UPAR-172, EtOPr-[Cys-Cit-Gln-Tyr-Phe-Pro-ala-Ile-Leu-Cys]-NH2] ({Propanoyl(3-OEt)}-C[Cit]QYFP[dA]ILC-NH2; disulfide 1-10)

IC50 [1]: ≥ 126 nM | Kd [2]: > 100 nM
Compound: CCCC[C@@H]1NC(=O)[C@H](CCCNC(=N)N)NC(=O)[C@@H](NC(=O)[C@H](CC(C)C)NC(=O)[C@H](CC(=O)O)NC(C)=O)CSSC[C@@H](C(N)=O)NC(=O)[C@H](CC(C)C)NC(=O)[C@H]([C@@H](C)CC)NC(=O)[C@H](C)NC(=O)[C@@H]2CCCN2C(=O)[C@H](Cc2ccccc2)NC(=O)[C@@H](Cc2ccc(O)cc2)NC1=O [UPAR-198, Ac-Asp-Leu-[Cys-Arg-Nle-tyr-Phe-Pro-Ala-Ile-Leu-Cys]-NH2] (Ac-DLCR[Nle][dY]FPAILC-NH2; disulfide 3-12)

IC50 [1]: ≥ 126 nM | Kd ([2]; single cycle kinetics): > 100 nM
Compound: CCCCC(=O)N[C@H]1CCNC(=O)CC[C@@H](C(N)=O)NC(=O)[C@H](CCC)NC(=O)[C@H]([C@@H](C)CC)NC(=O)[C@@H]2C[C@@H](O)CN2C(=O)[C@@H]2CCCN2C(=O)[C@H](Cc2ccccc2)NC(=O)[C@H](Cc2ccc(O)cc2)NC(=O)[C@H](CCC(N)=O)NC(=O)[C@H](CCCNC(=N)N)NC1=O [UPAR-390, Pent-[Dab-Arg-Gln-Tyr-Phe-Pro-Hyp-Ile-Nva-Glu]-NH2] (Pentanoyl-[Dab]RQYFP[Hyp]I[Nva]E-NH2; lactam 1-10)

IC50 [1]: ≤ 10 nM | Kd [2]: < 1.58 nM
Compound: CCCC[C@@H]1NC(=O)[C@H](CCC(=O)O)NC(=O)[C@@H](NC(=O)[C@H](CC(C)C)NC(=O)[C@H](CC(=O)O)NC(C)=O)CSSC[C@@H](C(N)=O)NC(=O)[C@H](CC(C)C)NC(=O)[C@H]([C@@H](C)CC)NC(=O)[C@H](C)NC(=O)[C@@H]2CCCN2C(=O)[C@H](Cc2ccccc2)NC(=O)[C@H](Cc2ccc(O)cc2)NC1=O [UPAR-239, Ac-Asp-Leu-[Cys-Glu-Nle-Tyr-Phe-Pro-Ala-Ile-Leu-Cys]-NH2] (Ac-DLCE[Nle]YFPAILC-NH2; disulfide 3-12)

IC50 [1]: ≤ 10 nM | Kd [2]: < 1.58 nM
Compound: CCCCC(=O)N[C@H]1CSSC[C@@H](C(N)=O)NC(=O)[C@H](CCC)NC(=O)[C@H]([C@@H](C)CC)NC(=O)[C@@H]2C[C@@H](O)CN2C(=O)[C@@H]2CCCN2C(=O)[C@H](Cc2csc3ccccc23)NC(=O)[C@H](Cc2ccc(O)cc2)NC(=O)[C@H](CCC(N)=O)NC(=O)[C@H](CCCNC(=N)N)NC1=O [UPAR-273, Pent-[Cys-Arg-Gln-Tyr-Bta-Pro-Hyp-Ile-Nva-Cys]-NH2] (Pentanoyl-CRQY[Bta]P[Hyp]I[Nva]C-NH2; disulfide 1-10)
